From patent publication US11814445B2, “Cyclic polypeptides for PCSK9 inhibition” (Ra Pharmaceuticals, Inc., priority 2018, dated 2023) come the findings set out here.

Numbered stars: 1 amine (or outer) side, 2 acyl side, 3 side chain; on linkers, the order of the positions; unused ones are H or OH. Bridge positions count the residues as written; N and C are the ends. Square brackets hold non-standard residues; d marks the D form. Peptide text beside a SMILES is read from it. Trp(5-F) = N[C@@H](Cc1c[nH]c2ccc(F)cc12)C(=O)O; X1 = O=C(CCSCc1cccc(CSCCN[*:1])c1)[*:2]; 2Nal = N[C@@H](Cc1ccc2ccccc2c1)C(=O)O; mXylylene = c1cc(C[*:1])cc(C[*:2])c1; hCha = N[C@@H](CCC1CCCCC1)C(=O)O; Pip = O=C(O)[C@@H]1CCCCN1; Mpa = O=C(O)CCS

Common to all, as to assay type: binding
Assay [1] concerns the target human PCSK9 / human LDLR EGFa domain (Homo sapiens, UniProt Q8NBP7). Put plainly: TR-FRET assay of inhibition of the PCSK9-LDLR protein-protein interaction. Conditions: 20 nM human PCSK9, 20 nM human LDLR EGFa domain, 2 hours room temperature. An outline of the steps: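 Compounds in dose-response are mixed with 20 nM human PCSK9 (avitag-biotinylated) and 20 nM his-tagged LDLR EGFa domain, plus 5 nM each streptavidin-Ulight and Eu-anti-6×His. After 2 h at room temperature in HEPES/NaCl/CaCl2 buffer with BSA and P20, TR-FRET is read and IC50 fitted (4-parameter).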
For orientation: Time-resolved FRET reads energy transfer from a long-lived donor to a nearby acceptor.

In assay [2] the target is T1, PCSK9 (Homo sapiens, UniProt Q8NBP7).
T1 construct: biotin (biotinylated)
Description: PCSK9 Alexa FRET Standard assay (displacement of AlexaFluor647 tagged cyclic peptide Reagent A). Conditions: 0.5 nM PCSK9, 20 nM AF cyclic peptide Reagent A. As for the experimental part: A solution containing 1 nM biotinylated PCSK9+2.5 nM Lance Streptavidin Europium (Strep-Eu) was made in 50 mM HEPES pH 7.4, 0.15 M NaCl, 5 mM CaCl2), 0.01% BSA, and 0.01% Surfactant P20. A separate solution containing 40 nM of the AlexaFluor tagged cyclic peptide was made in the same buffer system. An Echo was used to transfer 0.750 ul of compound to an assay plate followed by the addition of 15 ul of PCSK9+Stept-Eu and 15 ul of AF peptide. The final assay volume was 30.750 ul containing 0.5 nM PCSK9, 1.25 nM Strep-Eu, and 20 nM AF cyclic peptide. The reaction was incubated at room temperature for at least two hours prior to fluorescence measurements using an Envision Multilabel Reader. IC50 values were determined by fitting data to a sigmoidal dose-response curve using nonlinear regression. Ki was then calculated from the IC50 and the KD of AF cyclic peptide. Counts (B-counts) of the europium-labeled PCSK9 were followed to observe if compounds were […]. A fall off of the B-counts likely indicated a false positive of inhibition. Data from this procedure was reported as “A=‘numerical value’ (nanomolar)”

Assay [3] addresses T1, PCSK9. Description: PCSK9 Alexa FRET Plus assay (displacement of AlexaFluor647 tagged cyclic peptide Reagent B). The settings on record: 0.5 nM PCSK9, 960 nM AF cyclic peptide Reagent B. How it is done:
A solution containing 1 nM biotinylated PCSK9+2.5 nM Lance Streptavidin Europium (Strep-Eu) was made in 50 mM HEPES pH 7.4, 0.15 M NaCl, 5 mM CaCl2), 0.01% BSA, and 0.01% Surfactant P20. A separate solution containing 1920 nM of the AlexaFluor tagged cyclic peptide was made in the same buffer system. An Echo was used to transfer 0.075 ul of compound plus 0.675 ul of DMSO to each well of an assay plate followed by the addition of 15 ul of PCSK9+Stept-Eu and 15 ul of AF peptide. The final assay volume was 30.750 ul containing 0.5 nM PCSK9, 1.25 nM Strep-Eu, and 960 nM AF cyclic peptide. The reaction was incubated at room temperature for at least two hours prior to fluorescence measurements using an Envision Multilabel Reader. IC50 values were determined by fitting data to a sigmoidal dose-response curve using nonlinear regression. Ki was then calculated from the IC50 and the KD of AF cyclic peptide. Counts (B-counts) of the europium-labeled PCSK9 were followed to observe if compounds were adversely affecting PCSK9. A fall off of the B-counts likely indicated a false positive of inhibition. Data from this procedure was reported as “P=‘numerical value’ (nanomolar)”

T1 sequence (Q8NBP7 153-692): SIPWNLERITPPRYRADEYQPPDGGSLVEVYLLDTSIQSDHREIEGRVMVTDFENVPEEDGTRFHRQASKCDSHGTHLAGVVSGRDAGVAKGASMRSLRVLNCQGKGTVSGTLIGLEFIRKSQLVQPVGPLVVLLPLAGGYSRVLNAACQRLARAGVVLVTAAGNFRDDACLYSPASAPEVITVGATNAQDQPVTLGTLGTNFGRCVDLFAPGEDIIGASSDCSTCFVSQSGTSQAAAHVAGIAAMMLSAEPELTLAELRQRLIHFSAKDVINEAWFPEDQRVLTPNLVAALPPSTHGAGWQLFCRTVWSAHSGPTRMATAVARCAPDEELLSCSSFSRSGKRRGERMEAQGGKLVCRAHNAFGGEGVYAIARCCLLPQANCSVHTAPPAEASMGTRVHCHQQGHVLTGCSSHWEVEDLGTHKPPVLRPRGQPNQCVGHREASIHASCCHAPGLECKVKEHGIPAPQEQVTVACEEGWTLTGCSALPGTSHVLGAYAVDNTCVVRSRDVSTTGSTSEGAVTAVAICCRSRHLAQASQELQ
Chain of human PCSK9 / human LDLR EGFa domain (Q8NBP7 153-692): as above

On to `C[C@@H]1NC(=O)[C@@H]2CCCN2C(=O)[C@H](CCC2CCCCC2)NC(=O)[C@H](Cc2c[nH]c3ccc(F)cc23)NC(=O)CNC(=O)[C@H](CCCCN)NC(=O)CCSCc2cccc(c2)CSC[C@@H](C(N)=O)NC(=O)[C@@H]2CCCN2C(=O)[C@H](Cc2ccc(O)cc2)NC1=O` [Compound 026] ([Mpa]KG[Trp(5-F)][hCha]PAYPC-NH2; linker 1-10 via mXylylene), for which the IC50 is 1 to 100 nM in assay [1], 1 to 100 nM in assay [2] and 100 to 500 nM in assay [3].
As to `C[C@@H]1NC(=O)CCSCc2cccc(c2)CSCCNC(=O)[C@@H]2CCCN2C(=O)[C@H](Cc2ccccc2)NC(=O)[C@H](C)NC(=O)[C@@H]2CCCN2C(=O)[C@H](Cc2c[nH]c3ccc(F)cc23)NC(=O)[C@H](Cc2c[nH]c3ccc(F)cc23)NC(=O)[C@@H](C)NC1=O` [Compound 062] (cyclo(AFP[X1]A[dA][Trp(5-F)][Trp(5-F)]P)), the figures for the IC50 in assay [1], in assay [2] and in assay [3] were 1 to 100 nM, 100 to 1000 nM and 1 to 100 nM, respectively.
For the molecule `C[C@@H]1NC(=O)CCSCc2cccc(c2)CSCCNC(=O)[C@@H]2CCCN2C(=O)[C@H](Cc2ccc3ccccc3c2)NC(=O)[C@H](C)NC(=O)[C@@H]2CCCCN2C(=O)[C@H](Cc2c[nH]c3ccc(F)cc23)NC(=O)[C@H](Cc2c[nH]c3ccc(F)cc23)NC(=O)[C@@H](C)NC1=O` [Compound 089] (cyclo([2Nal]P[X1]A[dA][Trp(5-F)][Trp(5-F)][Pip]A)), the IC50 in assay [1], in assay [2] and in assay [3] was 1 to 100 nM in each case.

What is called IC50 is the concentration that inhibits the measured activity by half.
